Assays:
Test in all cases: relative viability (nuclei count vs DMSO), 5 days (fraction); higher = more cells survive
[1] = compound: C1=CC(=CC=C1C2=CC(=C(S2)NC(=O)N)C(=O)N)F [TPCA-1] + N=C(N)NC(=N)NCCc1ccccc1 [Phenformin] (partner 250 µM)
How it was run: (§1)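 Nuclei were stained with Hoechst during a one-step fixation (final 0.05% Triton X-100, 1% formaldehyde, 1 ug/ml Hoechst) carried out 5 days after dosing, then counted on 4× images. The cells, lung cancer lines in 1536-well plates, had been dosed by pin tool the day after seeding with one drug alone or a fixed anchor-drug dose plus five library-drug doses (not always all listed) in √10 steps. Relative viability is the nuclei count in treated wells divided by that in vehicle wells, and each value is the median of duplicate plates.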

[2] = compound: C1/C(=C\C2=CC=CS2)/C(=O)/C(=C/C3=CC=CS3)/C1 + Cc1cc(Nc2cc(N3CCN(C)CC3)nc(Sc3ccc(NC(=O)C4CC4)cc3)n2)n[nH]1 [Tozasertib] (partner 0.1 µM)
How it was run: as §1

[3] = compound: C1=CC(=CC=C1C2=CC(=C(S2)NC(=O)N)C(=O)N)F [TPCA-1] + Nc1ncn([C@H]2C[C@H](O)[C@@H](CO)O2)c(=O)n1 [Decitabine] (partner 2 µM)
How it was run: as §1

[4] = compound: C1/C(=C\C2=CC=CS2)/C(=O)/C(=C/C3=CC=CS3)/C1 + CC(C)C[C@H](NC(=O)[C@H](Cc1ccccc1)NC(=O)c1cnccn1)B(O)O [Bortezomib] (partner 0.002 µM)
How it was run: as §1

| Cell Line | relative viability ([1]; first compound 0.04 µM) | relative viability ([1]; first compound 0.1265 µM) | relative viability ([1]; first compound 0.4 µM) | relative viability ([1]; first compound 1.265 µM) | relative viability ([1]; first compound 4 µM) | relative viability ([2]; first compound 0.2 µM) | relative viability ([2]; first compound 0.6325 µM) | relative viability ([2]; first compound 2 µM) | relative viability ([2]; first compound 6.325 µM) | relative viability ([2]; first compound 20 µM) | relative viability ([3]; first compound 0.04 µM) | relative viability ([3]; first compound 0.1265 µM) | relative viability ([3]; first compound 0.4 µM) | relative viability ([3]; first compound 1.265 µM) | relative viability ([3]; first compound 4 µM) | relative viability ([4]; first compound 0.2 µM) | relative viability ([4]; first compound 0.6325 µM) | relative viability ([4]; first compound 2 µM) | relative viability ([4]; first compound 6.325 µM) | relative viability ([4]; first compound 20 µM) |
| --- | --- | --- | --- | --- | --- | --- | --- | --- | --- | --- | --- | --- | --- | --- | --- | --- | --- | --- | --- | --- |
| NCI-H838 | 0.612 | 0.516 | 0.672 | 0.367 | 0.288 | 0.295 | 0.264 | 0.321 | 0.216 | 0.231 | 0.466 | 0.442 | 0.532 | 0.44 | 0.44 | 0.864 | 0.787 | 0.912 | 0.655 | 0.782 |
| NCI-H1355 | 0.515 | 0.415 | 0.47 | 0.393 | 0.305 | 0.565 | 0.577 | 0.603 | 0.562 | 0.48 | 0.365 | 0.35 | 0.342 | 0.346 | 0.354 | 1.21 | 1.2 | 1.21 | 1.1 | 1.14 |
| NCI-H1437 | 0.336 | 0.297 | 0.277 | 0.297 | 0.299 | 0.408 | 0.413 | 0.452 | 0.273 | 0.407 | 0.601 | 0.566 | 0.572 | 0.566 | 0.669 | 0.544 | 0.503 | 0.479 | 0.495 | 0.479 |
| NCI-H1650 | 0.452 | – | 0.487 | 0.469 | 0.386 | 0.492 | 0.445 | 0.395 | 0.435 | 0.343 | 0.424 | 0.42 | 0.433 | 0.382 | 0.397 | 0.221 | 0.231 | 0.327 | 0.202 | 0.186 |
| NCI-H1651 | 0.361 | 0.295 | 0.368 | 0.327 | 0.262 | 0.731 | 0.671 | 0.837 | 0.596 | 0.718 | 0.66 | 0.578 | 0.578 | 0.546 | 0.217 | 0.876 | 0.995 | 0.916 | 0.914 | 0.925 |
| NCI-H1666 | 0.547 | 0.569 | 0.533 | 0.529 | 0.581 | 0.574 | 0.658 | 0.609 | 0.538 | 0.538 | 0.711 | 0.607 | 0.743 | 0.695 | 0.707 | 0.724 | 0.67 | 0.643 | 0.559 | 0.666 |
| NCI-H1734 | 0.42 | 0.363 | 0.42 | 0.391 | 0.287 | 0.282 | 0.293 | 0.263 | 0.167 | 0.287 | 0.58 | 0.468 | 0.531 | 0.517 | 0.454 | 1.03 | 0.953 | 0.906 | 0.805 | 0.881 |
| NCI-H1755 | 0.665 | 0.553 | 0.6 | 0.503 | 0.427 | 0.64 | 0.583 | 0.582 | 0.539 | 0.549 | 0.649 | 0.709 | 0.709 | 0.688 | 0.67 | 1.01 | 0.897 | 1.03 | 0.853 | 0.928 |
| NCI-H1915 | 0.403 | 0.362 | 0.385 | 0.321 | 0.289 | 0.428 | 0.456 | 0.447 | 0.422 | 0.446 | 0.266 | 0.253 | 0.258 | 0.255 | 0.251 | 0.982 | 0.97 | 1.02 | 0.908 | 0.895 |
| NCI-H1975 | 0.445 | 0.392 | 0.435 | 0.405 | 0.312 | 0.71 | 0.742 | – | 0.678 | 0.699 | 0.393 | 0.343 | 0.403 | 0.387 | 0.188 | 0.435 | 0.421 | 0.361 | 0.334 | 0.367 |
| NCI-H1993 | 0.425 | 0.536 | 0.55 | 0.421 | 0.485 | 0.567 | 0.556 | 0.594 | 0.559 | 0.506 | 0.604 | 0.541 | 0.541 | 0.584 | 0.508 | 1.07 | 0.946 | 1.36 | 0.915 | 1.19 |
| NCI-H2009 | 0.542 | 0.486 | 0.512 | 0.429 | 0.44 | 0.764 | 0.814 | 0.752 | 0.657 | 0.81 | 0.412 | 0.392 | 0.377 | 0.423 | 0.392 | 1.04 | 0.939 | 1.08 | 0.736 | 0.991 |
| NCI-H2023 | 0.488 | 0.423 | 0.476 | 0.359 | 0.269 | 0.428 | 0.507 | 0.397 | 0.346 | 0.259 | 0.256 | 0.195 | 0.228 | 0.227 | 0.182 | 0.964 | 0.942 | 1.21 | 0.869 | 0.868 |
| NCI-H2085 | 0.837 | 0.616 | 0.693 | 0.555 | 0.389 | 0.867 | 0.898 | 0.792 | 0.799 | 0.718 | – | 0.531 | 0.618 | 0.579 | 0.665 | 1.16 | 1.08 | 1.15 | 1.02 | 1.03 |
| NCI-H2087 | 0.475 | 0.417 | 0.417 | 0.351 | 0.154 | 0.404 | 0.257 | 0.257 | 0.201 | 0.225 | 0.255 | 0.222 | 0.311 | 0.335 | 0.152 | 0.922 | 0.742 | 0.963 | 0.512 | 0.73 |
| NCI-H2126 | 0.561 | 0.499 | 0.53 | 0.537 | 0.44 | 0.888 | 0.831 | 0.878 | 0.814 | 0.798 | 0.582 | 0.577 | 0.632 | 0.614 | 0.514 | 1.16 | 1.1 | 1.21 | 0.994 | 1.1 |
| NCI-H2347 | 0.652 | 0.331 | 0.451 | 0.262 | 0.264 | 0.666 | 0.574 | 0.596 | – | 0.738 | 0.578 | 0.551 | 0.664 | 0.641 | 0.619 | 0.847 | 1 | 1.04 | 0.831 | 1.04 |
| NCI-H2405 | 0.459 | 0.37 | 0.471 | 0.166 | 0.38 | 0.775 | 0.774 | 0.862 | 0.72 | 0.76 | 0.823 | 0.664 | 0.748 | 0.712 | 0.717 | 1.03 | 0.944 | 1.01 | 0.631 | 1 |
| NCI-H3122 | 0.383 | 0.401 | 0.409 | 0.374 | 0.404 | 0.393 | 0.498 | 0.396 | 0.391 | 0.442 | 0.424 | 0.404 | 0.424 | 0.496 | 0.455 | 1.04 | 1.02 | 0.997 | 1.03 | 0.932 |
| PC-3 [JPC-3] | 0.461 | 0.461 | 0.484 | 0.486 | 0.468 | 0.924 | 0.843 | 0.824 | 0.746 | 0.896 | 0.862 | 0.916 | 0.838 | 0.813 | 0.818 | 0.845 | 0.956 | 0.88 | 0.76 | 0.884 |
| PC-14 | 0.575 | 0.492 | 0.717 | 0.508 | 0.568 | 0.604 | 0.59 | 0.597 | 0.571 | 0.595 | 0.265 | 0.24 | 0.231 | 0.255 | 0.323 | 0.904 | 0.763 | 0.837 | 0.742 | 0.98 |
| RERF-LC-KJ | 0.425 | 0.393 | 0.424 | 0.408 | 0.37 | 0.475 | 0.566 | 0.533 | 0.46 | 0.455 | 0.715 | 0.598 | 0.656 | 0.612 | 0.548 | 1.07 | 1.14 | 1.04 | 0.912 | 1.13 |
| SK-LU-1 | 0.719 | 0.461 | 0.662 | 0.44 | 0.238 | 0.329 | 0.385 | 0.419 | 0.271 | 0.36 | 0.72 | 0.563 | 0.627 | 0.493 | 0.372 | 1.33 | 1.07 | 1.68 | 1.13 | 1.28 |
| SW 1573 | 0.341 | 0.323 | 0.411 | 0.296 | 0.331 | 0.175 | 0.13 | 0.176 | 0.158 | 0.139 | 0.621 | 0.402 | 0.438 | 0.677 | 0.395 | 0.985 | 1 | 1.09 | 0.834 | 0.949 |
